These are literature values, as cited in patent publication US10507186B2, “Methods and compositions particularly for treatment of attention deficit disorder” (Purdue Pharma L.P., priority 2014, dated 2019).

Counter-ions that a name gives are not always drawn. Like-named read-outs stand apart in the source and are kept apart here.

The subject of data set [1] is ADHD symptoms in patients. The conditions noted are these: long-acting lisdexamfetamine dimesylate.

As for `COC(=O)C(c1ccccc1)C1CCCCN1` (racemic) [Methylphenidate, dl-threo-methyl-2-phenyl-2-(2-piperidyl)acetate], the degradation amount entry (as the pH increases to 8.9) is “up to 100%”. Moreover, the stability entry by setting is: (in acidic solutions) “relatively stable”; (in basic solutions, hydrolysis of the methyl ester to the free acid) “degraded extensively”.

Consider `COC(=O)C(c1ccccc1)C1CCCCN1` (stereo not drawn) [Methylphenidate hydrochloride], for which the solubility result runs as follows: (in acetone) “slightly soluble”; (in alcohol) “soluble”; (in chloroform) “slightly soluble”; (in methanol) “freely soluble”; (in water) “freely soluble”.

On to lisdexamfetamine dimesylate, for which, in data set [1], the “reported duration of action” value is recorded as “up to 14 hours”.
